These results are taken from patent publication US20210053957A1, “HERBICIDAL COMPOUNDS” (SYNGENTA PARTICIPATIONS AG, priority 2018, published 2021).

Assay in all cases: Post-emergence efficacy, glasshouse spray test
Holding throughout (assay type): in vivo

One assay concerns Eleusine indica (ELEIN). The conditions noted are these: Application Rate 500 g/Ha, evaluated after 13 days; for pest or weed control at 500 g/ha: Eleusine indica, post-emergence, 312 h, read-out: Control of weed species after post-emergence application, ELEIN (100=total damage to plant; 0=no damage to plant). In a few lines:
(§1)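 Scoring 13 days after treatment ran 0 = no damage to 100 = plant killed. Spray solution: formula (I) dissolved in acetone with IF50 emulsifier/solvent mix, diluted with 0.25% or 1% sodium lauryl ether sulphate plus 1% ammonium sulphate, applied to 14-day-old glasshouse plants (24/16 °C, 14 h light, 65% humidity).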

In assay [1] the test system is Ipomoea hederacea (IPOHE). The conditions noted are these: Application Rate 500 g/Ha, evaluated after 13 days; for pest or weed control at 500 g/ha: Ipomoea hederacea, post-emergence, 312 h, read-out: Control of weed species after post-emergence application, IPOHE (100=total damage to plant; 0=no damage to plant). In a few lines: as §1
Assay [2] concerns Chenopodium album (CHEAL). The note with it: Application Rate 500 g/Ha, evaluated after 13 days; for pest or weed control at 500 g/ha: Chenopodium album, post-emergence, 312 h, read-out: Control of weed species after post-emergence application, CHEAL (100=total damage to plant; 0=no damage to plant). In a few lines:
as §1

The test system of assay [3] is Euphorbia heterophylla (EPHHL). The note with it: Application Rate 500 g/Ha, evaluated after 13 days; for pest or weed control at 500 g/ha: Euphorbia heterophylla, post-emergence, 312 h, read-out: Control of weed species after post-emergence application, EPHHL (100=total damage to plant; 0=no damage to plant). In a few lines:
as §1

In a further assay the test system is Setaia fabei (SETFA). The note with it: Application Rate 500 g/Ha, evaluated after 13 days; for pest or weed control at 500 g/ha: Setaria faberi, post-emergence, 312 h, read-out: Control of weed species after post-emergence application, SETFA (100=total damage to plant; 0=no damage to plant). In a few lines:
as §1

For another assay, the system named is Lolium perenne (LOLPE). The note with it: Application Rate 500 g/Ha, evaluated after 13 days; for pest or weed control at 500 g/ha: Lolium perenne, post-emergence, 312 h, read-out: Control of weed species after post-emergence application, LOLPE (100=total damage to plant; 0=no damage to plant). In a few lines:
as §1

The subject of assay [4] is Amaranthus palmeri (AMAPA). The conditions noted are these: Application Rate 500 g/Ha, evaluated after 13 days; for pest or weed control at 500 g/ha: Amaranthus palmeri, post-emergence, 312 h, read-out: Control of weed species after post-emergence application, AMAPA (100=total damage to plant; 0=no damage to plant). In a few lines: as §1
Assay [5] has as its system Digitaria sanguinalis (DIGSA). The note with it: Application Rate 500 g/Ha, evaluated after 13 days; for pest or weed control at 500 g/ha: Digitaria sanguinalis, post-emergence, 312 h, read-out: Control of weed species after post-emergence application, DIGSA (100=total damage to plant; 0=no damage to plant). In a few lines:
as §1

The test system of assay [6] is Echinochloa crus-galli (ECHCG). The conditions noted are these: Application Rate 500 g/Ha, evaluated after 13 days; for pest or weed control at 500 g/ha: Echinochloa crus-galli, post-emergence, 312 h, read-out: Control of weed species after post-emergence application, ECHCG (100=total damage to plant; 0=no damage to plant). In a few lines:
as §1

Turning to `O=C(O)CC[n+]1ccc(-c2ccno2)cn1` [Compound A96], the pest or weed control at 500 g/ha with Eleusine indica (ELEIN) came out at 80%; in assay [1], 80%; in assay [2], 90%; in assay [3], 100%; with Setaia fabei (SETFA), 80%; in the assay on Lolium perenne (LOLPE), 70%. Further, the figures for the pest or weed control at 500 g/ha in assay [4], in assay [5] and in assay [6] were 100%, 40% and 30%, respectively.

`O=C(O)CC[n+]1ccc(-c2ccsn2)cn1` [Compound A97]: the pest or weed control at 500 g/ha in the assay with Eleusine indica (ELEIN) was 70%; in [1] it was 20%; in assay [2] it was 80%; in assay [3], 50%; in the assay with Setaia fabei (SETFA), 40%; in the assay on Lolium perenne (LOLPE), 30%. Further, the pest or weed control at 500 g/ha in assay [4] came to 100%; in assay [5], 50%; in assay [6], 60%.

With `Cc1nnc(-c2cc[n+](CCC(=O)O)nc2)s1` [Compound A98], the pest or weed control at 500 g/ha in the assay on Eleusine indica (ELEIN) was 80%; in [1], 40%; in assay [2], 90%; in [3], 90%; in the assay on Setaia fabei (SETFA) it was 100%; with Lolium perenne (LOLPE) it was 80%. Moreover, the pest or weed control at 500 g/ha in assay [4] amounted to 100%; in assay [5], 90%; in [6], 70%.

Turning to `O=C(O)CC[n+]1ccc(-c2cscn2)cn1` [Compound A100], the pest or weed control at 500 g/ha with Eleusine indica (ELEIN) amounted to 30%; in assay [1] it was 20%; in assay [2], 0%; in assay [3] it was 30%; in the assay on Setaia fabei (SETFA) it was 30%; in the assay on Lolium perenne (LOLPE), 10%. Moreover, the figures for the pest or weed control at 500 g/ha in assay [4], in assay [5] and in [6] were 0%, 40% and 30%, respectively.

Consider `O=S(=O)([O-])N1CCCC1C[n+]1ccc(-c2ncco2)cn1` (stereo not drawn) [Compound A101], for which the pest or weed control at 500 g/ha is 30% in the assay with Eleusine indica (ELEIN); 40% in assay [1]; 60% in assay [2]; 70% in [3]; 60% in the assay on Setaia fabei (SETFA); 20% with Lolium perenne (LOLPE). Moreover, the figures for the pest or weed control at 500 g/ha in [4], in [5] and in [6] were 70%, 70% and 40%, respectively.

For the compound `O=P(O)(O)C[n+]1ccc(-c2ncco2)cn1` [Compound A102], the “Control of weed species after post-emergence application, ELEIN (100=total damage to plant; 0=no damage to plant)” value in the assay with Eleusine indica (ELEIN) worked out at 30. Moreover, the “Control of weed species after post-emergence application, IPOHE (100=total damage to plant; 0=no damage to plant)” value in [1] is 60. Besides, in assay [2], the “Control of weed species after post-emergence application, CHEAL (100=total damage to plant; 0=no damage to plant)” value was found to be 90. For the same compound, in assay [3], the “Control of weed species after post-emergence application, EPHHL (100=total damage to plant; 0=no damage to plant)” value came to 90. The “Control of weed species after post-emergence application, SETFA (100=total damage to plant; 0=no damage to plant)” value with Setaia fabei (SETFA) was found to be 60. For the same compound, in the assay on Lolium perenne (LOLPE), the “Control of weed species after post-emergence application, LOLPE (100=total damage to plant; 0=no damage to plant)” value is given as 10. The “Control of weed species after post-emergence application, AMAPA (100=total damage to plant; 0=no damage to plant)” value in assay [4] turned out to be 100. Besides, in assay [5], the “Control of weed species after post-emergence application, DIGSA (100=total damage to plant; 0=no damage to plant)” value was 60. Moreover, the “Control of weed species after post-emergence application, ECHCG (100=total damage to plant; 0=no damage to plant)” value in assay [6] is given as 70.

As for `COP(=O)([O-])C[n+]1ccc(-c2ncco2)cn1` [Compound A103], the pest or weed control at 500 g/ha came to 60% in the assay with Eleusine indica (ELEIN); 40% in assay [1]; 40% in [2]; 70% in assay [3]; 80% in the assay with Setaia fabei (SETFA); 30% in the assay on Lolium perenne (LOLPE). Further, the pest or weed control at 500 g/ha came to 70% in [4], 90% in [5] and 70% in assay [6].

Turning to `O=C(O)c1cccc(C[n+]2ccc(-c3ncco3)cn2)c1` [Compound A104], the pest or weed control at 500 g/ha is 20% with Eleusine indica (ELEIN); 10% in [1]; 20% in assay [2]; 30% in assay [3]; 60% with Setaia fabei (SETFA); 10% with Lolium perenne (LOLPE). Further, the values for the pest or weed control at 500 g/ha in assay [4], in assay [5] and in assay [6] were 40%, 50% and 50%, respectively.

As to `O=S(=O)([O-])CC[n+]1ccc(-c2ccsn2)cn1` [Compound A105], the pest or weed control at 500 g/ha with Eleusine indica (ELEIN) stood at 90%; in assay [1], 70%; in assay [2], 90%; in [3], 100%; in the assay with Setaia fabei (SETFA) it was 90%; in the assay on Lolium perenne (LOLPE), 70%. Besides, the pest or weed control at 500 g/ha in assay [4] is 90%; in [5] it was 100%; in assay [6], 80%.

Take `COP(=O)(O)CC[n+]1ccc(-c2ncco2)cn1` [Compound A106]: the pest or weed control at 500 g/ha with Eleusine indica (ELEIN) stood at 20%; in assay [1], 20%; in assay [2] it was 0%; in [3] it was 60%; with Setaia fabei (SETFA), 50%; in the assay with Lolium perenne (LOLPE), 0%. Besides, the pest or weed control at 500 g/ha came out at 10% in [4], 80% in [5] and 40% in [6].

For `CC(C)(CC(=O)O)[n+]1ccc(-c2ncco2)cn1` [Compound A107], the pest or weed control at 500 g/ha in the assay with Eleusine indica (ELEIN) is 30%; in [1], 20%; in assay [2] it was 50%; in assay [3], 30%; in the assay with Setaia fabei (SETFA) it was 50%; in the assay with Lolium perenne (LOLPE) it was 20%. Also, the pest or weed control at 500 g/ha worked out at 100% in assay [4], 70% in assay [5] and 40% in assay [6].

With `COP(=O)(CC[n+]1ccc(-c2ncco2)cn1)OC.O=C([O-])C(F)(F)F` [Compound A108], the “Control of weed species after post-emergence application, ELEIN (100=total damage to plant; 0=no damage to plant)” value with Eleusine indica (ELEIN) worked out at 20. Also, the “Control of weed species after post-emergence application, IPOHE (100=total damage to plant; 0=no damage to plant)” value in assay [1] is listed as 30. Further, the “Control of weed species after post-emergence application, CHEAL (100=total damage to plant; 0=no damage to plant)” value in [2] worked out at 20. For the same compound, the “Control of weed species after post-emergence application, EPHHL (100=total damage to plant; 0=no damage to plant)” value in assay [3] was 30. In the assay on Setaia fabei (SETFA), the “Control of weed species after post-emergence application, SETFA (100=total damage to plant; 0=no damage to plant)” value is given as 30. In the assay on Lolium perenne (LOLPE), the “Control of weed species after post-emergence application, LOLPE (100=total damage to plant; 0=no damage to plant)” value is 10. Besides, the “Control of weed species after post-emergence application, AMAPA (100=total damage to plant; 0=no damage to plant)” value in assay [4] was 20. For the same compound, the “Control of weed species after post-emergence application, DIGSA (100=total damage to plant; 0=no damage to plant)” value in assay [5] is reported as 60. The “Control of weed species after post-emergence application, ECHCG (100=total damage to plant; 0=no damage to plant)” value in [6] is on record as 30.

For the compound `N[C@@H](CC[n+]1ccc(-c2ncco2)cn1)C(=O)O` [Compound A110], the pest or weed control at 500 g/ha in the assay with Eleusine indica (ELEIN) was 100%; in [1], 20%; in assay [2], 80%; in assay [3], 40%; in the assay on Setaia fabei (SETFA), 80%; with Lolium perenne (LOLPE), 20%. For the same compound, the results for the pest or weed control at 500 g/ha in [4], in assay [5] and in assay [6] were 90%, 90% and 100%, respectively.

With `O=C(O)CC[n+]1ccc(-c2nccs2)cn1` [Compound A111], the pest or weed control at 500 g/ha with Eleusine indica (ELEIN) was determined as 100%; in assay [1], 70%; in assay [2], 90%; in assay [3], 90%; with Setaia fabei (SETFA), 100%; in the assay on Lolium perenne (LOLPE) it was 90%. Besides, the pest or weed control at 500 g/ha turned out to be 90% in [4], 100% in [5] and 100% in assay [6].
